Data taken from patent publication US20240132511A1, “TREATMENTS OF PRADER-WILLI SYNDROME” (Neuren Pharmaceuticals Limited, priority 2021, published 2024).

Tested on: Magel2-null mice
Assay: Fat mass in female Magel2-null mice
Assay type: in vivo, mouse
Parameters: key: **** = p < 0.0001; ns = not significant
Experimental: In vivo experiments were conducted in C57BL/6-Magel2tm1Stw/J (Magel2-null) mice at age P60 and their wild-type littermates during the light phase (littermates that were wild-type for Magel2 were used as controls). Ten mice per treatment group were used for studies 1 and 2, and six mice per group for study 3. In study 1: C57BL/6-Magel2tm1Stw/J (Magel2-null) mice were assessed on behavioral assays. Study 2 tested the efficacy of cG-2-AllylP in treating obesity and insulin levels in Magel2-null mice. Study 3 tested the IGF-1 level in Magel2-null mice. Because human beings have the same genetic abnormality, studies of Magel2-null mice are reasonably predictive of effects of compounds of Formulas I, II, III and IV in human beings with Prader-Willi Syndrome.
Testing was performed during the light phase of the circadian cycle, with the order of testing being determined by the principle of conducting the most stressful tests last. Assays were designed to reproduce and expand on the original behavioral characterization of Magel2-null mice. Magel2-null and wild-type control mice were dosed once daily for 6 weeks prior to testing and tested 30 minutes following a dose of cG-2-AllylP (NNZ2591). Study groups and the treatment matrix are described in Table 2 below.
Prader-Willi Syndrome is associated with metabolic and hormonal abnormalities in humans. Magel2-null mice recapitulate some of the metabolic and hormonal aspects of humans with Prader-Willi Syndrome. Experiments were conducted to determine if cG-2-AllylP could have a normalizing effect in metabolic and hormonal aspects.
Because female Magel2-null mice present a significant increase in body weight compared with their littermate wild-type controls, female Magel2-null mice were used for this study.

With `C=CCC12CCCN1C(=O)CNC2=O` [cG-2-AllylP, (8aS)-Allyl-hexahydropyrrolo[1,2-a]pyrazine-1,4-dione] the “Effect on fat mass, Sidak's multiple comparisons test, Summary” value (“Effect on fat mass” below) (Magel2-null + Vehicle vs. Magel2-null + NNZ2591 (100 mg/kg)) was “ns”, the “Effect on fat mass” value (Magel2-null + Vehicle vs. Magel2-null + NNZ2591 (200 mg/kg)) was “**** (**** = p < 0.0001)” and the “Effect on fat mass” value (WT + NNZ2591 (200 mg/kg) vs. Magel2-null + NNZ2591 (200 mg/kg)) was “ns”. The “Effect on fat mass” value (WT + Vehicle vs. WT + NNZ2591 (100 mg/kg)) was “ns” and the “Effect on fat mass” value (WT + Vehicle vs. WT + NNZ2591 (200 mg/kg)) was “ns”.
